We go through 1 compound from paper PMC8103899, “Allyl Isothiocyanate: A TAS2R38 Receptor-Dependent Immune Modulator at the Interface Between Personalized Medicine and Nutrition” (Frontiers in Immunology, 2021).

One series relates to p-ERK1/2, p-p38, p-Akt. As to the kind of experiment: Immunoblotting of MAPK and AKT phosphorylation in PBMC. Format: cell-based, human. Here is the method:
Proteins of interest were analyzed by immunoblotting as described before ([36]). Densitometric analysis was done to quantify the immunoblots using Quantity One software (Bio-Rad, Munich, Germany) and normalized against β-actin.
Figure 4 AITC mediates MAPK down-stream signaling in dependence of the TAS2R38 haplotype. (A, B) PBMC were treated with test compounds for the indicated time points and pellets were collected for protein expression analysis. Representative immunoblots are given. Densitometric analysis was done to quantify the immunoblots using Quantity One software (Bio-Rad, Munich, Germany) and normalized against β-actin, which was used as loading control. The graphs show phosphorylated ERK1/2, p-38 or Akt, protein levels relative to control as quantified by pixel densitometry. Bars are mean + SD; *p < 0.05, **p < 0.01 (n ≥ 2). Significance of difference was calculated relative to the corresponding solvent control determined by one-way ANOVA (SC, 0.01% DMSO).
Figure 5 In bacterial LPS stimulated PBMC, AITC triggers MAPK activation and TNF-α inhibition in dependence of the TAS2R38 genotype. PBMC were exposed to AITC or 0.01% DMSO (SC) together with 100 pg/mL LPS. (A) Representative immunoblots are given. Densitometric analysis was done to quantify the immunoblots using Quantity One software (Bio-Rad, Munich, Germany) and normalized against β-actin, which was used as loading control. (B, C) Cytokine secretion at 3 and 24 h was analyzed using ELISA kits. (D) Time kinetic of TNF-α mRNA expression. Results are means + SD and given as fold of the solvent control. Results were calculated relative to the corresponding solvent control (SC, 0.01% DMSO). Significance of difference was determined compared to the respective SC by one-way ANOVA, *p < 0.05, **p < 0.01.

Details of series [1]: method as in PMID 26317351. The conditions noted are these: rats, oral dosing; cited from earlier work.
Another series concerns the target T1, TAS2R38 receptor (Homo sapiens, UniProt P59533, A49P/I296V).
T1 sequence (P59533 1-333 A49P/I296V): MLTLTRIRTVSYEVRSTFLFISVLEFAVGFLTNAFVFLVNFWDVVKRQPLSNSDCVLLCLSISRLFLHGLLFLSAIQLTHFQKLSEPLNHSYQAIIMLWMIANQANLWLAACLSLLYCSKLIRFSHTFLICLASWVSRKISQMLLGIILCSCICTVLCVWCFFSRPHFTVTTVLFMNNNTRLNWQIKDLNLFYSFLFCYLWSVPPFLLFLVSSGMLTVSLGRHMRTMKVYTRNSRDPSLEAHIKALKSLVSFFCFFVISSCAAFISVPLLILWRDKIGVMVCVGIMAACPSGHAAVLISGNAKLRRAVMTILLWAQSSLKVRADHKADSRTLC
Put plainly: Calcium flux assay in human PBMC (flow cytometry, Fluo-4 AM).

With `C=CCN=C=S` [AITC, allyl isothiocyanate], the “p-ERK, p-p38 and p-Akt phosphorylation” value in the series on p-ERK1/2, p-p38, p-Akt (5 min, 100 pg/mL LPS and AITC, PAV/PAV subjects) is “upregulation”. The “p-ERK1/2 and p-p38 phosphorylation” value in the series with p-ERK1/2, p-p38, p-Akt (PBMC, PAV/PAV group, in contrast to AVI/AVI) was “quick activation (5 min. AITC exposure), followed by dephosphorylation”. For the same compound, the p-Akt phosphorylation entry with p-ERK1/2, p-p38, p-Akt (PBMC, in dependence of the TAS2R38 genotype) is on record as “same activation/inactivation pattern”. For the same compound, in series [1], the “time to peak plasma level” value is reported as no more than 0.5 h. Moreover, the calcium influx on TAS2R38 receptor (PAV/PAV cells, 0.01 µM AITC (increase between 0.01 to 1 µM)) is reported as 28%; on TAS2R38 receptor (PAV/PAV cells, 1 µM AITC (increase between 0.01 to 1 µM)), 35%; on TAS2R38 receptor (PAV/PAV cells, 10 µM AITC (increase between 10-100 µM)), 45%; at TAS2R38 receptor (PAV/PAV cells, 100 µM AITC (increase between 10-100 µM)), 72%; at TAS2R38 receptor (lymphocytes, PAV/PAV, 1 µM AITC), 25%. The “calcium flux (statistically significant)” value on TAS2R38 receptor (monocytes, PAV/PAV, 0.01 µM AITC) is 22%. In addition, at TAS2R38 receptor (monocytes, calcium flux), the threshold concentration is 10 nM.
